This is an account of results in ChEMBL document CHEMBL1681659, “Discovery of novel positive allosteric modulators of the metabotropic glutamate receptor 5 (mGlu5)” (Bioorg Med Chem Lett, 2011).

Data set [1] can be described thus: Intrinsic clearance in rat liver microsome. In kind it is ADME. The note with it: liver microsomes. A general note: Liver microsomes are a subcellular fraction often used to study metabolism.
Data set [2] can be described thus: Intrinsic clearance in human liver microsome. In kind it is ADME. The settings on record: liver microsomes.
The nature of data set [3]: Chemical stability of the compound assessed as half life at pH 10. In kind it is physicochemical. The note with it: buffer.
Data set [4] is described as follows: Chemical stability of the compound assessed as half life at pH 1. It is filed as physicochemical. The note with it: buffer.
Data set [5] in a line: Chemical stability assessed as compound remaining after 1 hr by photolysis assay. In kind it is physicochemical. The note with it: read-out: Stability.

Each structure is given as a SMILES string.

One may read the microsomal CLint as a measure of how fast metabolising enzymes remove a compound, apart from limits set by blood flow. One may read the half-life as how long it takes for the measured level to halve. `O=C1CCOc2nc(C#Cc3ccccc3)ccc21`: the microsomal CLint in data set [1] was found to be 95 µL/min/mg; in data set [2] it was 120 µL/min/mg. For the same compound, the half-life in data set [3] is 24 h; in data set [4] it was 278 h. The remaining at 1 h in data set [5] came out at 0%.
